These results are taken from publication PMC5431086, “The Rational Design of Therapeutic Peptides for Aminopeptidase N using a Substrate-Based Approach” (Scientific Reports, 2017).

Starred links: 1 amine or outer side, 2 acyl side, 3 side chain; linkers in the order of their positions; H or OH if unused. Positions of bridges follow the written chain, without caps; N, C: chain ends. Residues, ends and D or L forms follow the SMILES beside them. No end group written: not given here. *: point of attachment. Suc = O=C(CCC(=O)[*:2])[*:1]; Cbz = O=C(OCc1ccccc1)*; For = O=C*

One experiment deals with T1, hAPN (aminopeptidase N) (Homo sapiens, UniProt P15144).
T1 construct: human APN ecdomain (residues 66–967) were expressed and purified as previously described; honeybee-melittin signal peptide (N); His6 (C); made in house; host or cells: insect cells
T1 sequence (P15144 66-967): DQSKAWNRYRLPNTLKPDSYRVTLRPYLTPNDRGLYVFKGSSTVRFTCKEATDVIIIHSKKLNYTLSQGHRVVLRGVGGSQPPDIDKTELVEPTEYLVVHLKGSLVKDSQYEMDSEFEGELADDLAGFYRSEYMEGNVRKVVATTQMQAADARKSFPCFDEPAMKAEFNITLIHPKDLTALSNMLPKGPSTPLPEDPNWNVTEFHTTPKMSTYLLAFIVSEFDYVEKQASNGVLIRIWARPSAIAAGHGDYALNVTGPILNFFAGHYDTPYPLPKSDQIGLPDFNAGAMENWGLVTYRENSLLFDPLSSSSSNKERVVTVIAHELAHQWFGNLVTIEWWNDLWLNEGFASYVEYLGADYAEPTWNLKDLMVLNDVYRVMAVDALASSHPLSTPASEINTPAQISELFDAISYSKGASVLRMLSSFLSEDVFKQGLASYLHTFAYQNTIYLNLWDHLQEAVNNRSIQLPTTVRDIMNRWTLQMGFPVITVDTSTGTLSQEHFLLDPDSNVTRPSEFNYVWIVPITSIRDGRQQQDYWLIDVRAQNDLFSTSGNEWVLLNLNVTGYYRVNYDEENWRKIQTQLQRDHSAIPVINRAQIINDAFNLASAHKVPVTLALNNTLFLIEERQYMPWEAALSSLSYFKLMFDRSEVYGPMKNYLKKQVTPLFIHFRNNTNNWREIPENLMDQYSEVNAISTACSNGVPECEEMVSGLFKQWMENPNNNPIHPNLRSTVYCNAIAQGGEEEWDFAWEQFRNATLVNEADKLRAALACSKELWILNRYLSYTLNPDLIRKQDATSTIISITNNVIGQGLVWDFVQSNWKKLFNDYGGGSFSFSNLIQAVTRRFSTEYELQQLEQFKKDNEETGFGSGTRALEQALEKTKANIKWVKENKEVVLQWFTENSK
Nature of the experiment: Inhibition of cleavage of fluorogenic alanine substrate (H-Ala-AMC) by APN. Type of experiment: biochemical. The note with it: 0.1 μM APN, 100 μM H-Ala-AMC, pH 7.2, 37 °C, triplicate. Here is the method: Five-residue long peptides containing P1–P4′ residues from primary cleavages in the library were synthesized and tested for their ability to prevent the cleavage of a fluorogenic alanine substrate by hAPN.
The peptides used in this study were custom synthesized by AAPPTEC of Louisville, KY using traditional Fmoc solid-phase peptide synthesis. All of the peptides were purified and characterized by AAPPTEC. […] Inhibition assays were performed in triplicate in a 100 mM Tris pH 7.2, Brij 35 0.0002% w/v assay buffer at 37 °C with 0.1 μM APN and 100 μM H-Ala-AMC (fluorophore). Values were recorded by Infinite pro plate reader every 2 minutes for 30 minutes with laser parameters set for excitation at 355 nm and emission at 460 nm.
As to LHSPW [LHSPW], it took 10.6 ± 1.2 µM to reach half-maximal inhibition (IC50).
For PHSPW [PHSPW], the IC50 (as a rule, the point on the concentration scale where inhibition reaches its midpoint) was determined as 82.5 ± 9.3 µM.
The compound RDLVD [RDLVD] gave an IC50 of more than 500 µM.
Regarding SKSGQ [SKSGQ], the IC50 was more than 500 µM.

The same experiment, now with this note: APN; Ki from IC50 by Cheng-Prusoff equation; 0.1 μM APN, 100 μM H-Ala-AMC.
`CC(=O)N[C@@H](Cc1c[nH]cn1)C(=O)N[C@@H](CO)C(=O)N1CCC[C@H]1C(=O)N[C@@H](Cc1c[nH]c2ccccc12)C(=O)O` [Ac-HSPW] (Ac-HSPW-OH; C-terminus assumed): the Ki (as a rule, the equilibrium dissociation constant of an inhibitor or competing ligand from its target) is more than 500 µM.
`O=C(N[C@@H](Cc1c[nH]cn1)C(=O)N[C@@H](CO)C(=O)N1CCC[C@H]1C(=O)N[C@@H](Cc1c[nH]c2ccccc12)C(=O)O)OCc1ccccc1` [Cbz-HSPW] (Cbz-HSPW-OH; C-terminus assumed) showed a Ki of more than 500 µM.
Take `CC(C)C[C@H](NC(=O)OCc1ccccc1)C(=O)N[C@@H](Cc1c[nH]cn1)C(=O)N[C@@H](CO)C(=O)N1CCC[C@H]1C(=O)N[C@@H](Cc1c[nH]c2ccccc12)C(=O)O` [Cbz-LHSPW] (Cbz-LHSPW-OH): the inhibition constant (Ki) is more than 500 µM.
Take `O=CN[C@@H](Cc1c[nH]cn1)C(=O)N[C@@H](CO)C(=O)N1CCC[C@H]1C(=O)N[C@@H](Cc1c[nH]c2ccccc12)C(=O)O` [For-HSPW] (For-HSPW-OH; C-terminus assumed): the Ki was more than 500 µM.
With `CC(C)C[C@H](NC=O)C(=O)N[C@@H](Cc1c[nH]cn1)C(=O)N[C@@H](CO)C(=O)N1CCC[C@H]1C(=O)N[C@@H](Cc1c[nH]c2ccccc12)C(=O)O` [For-LHSPW] (For-LHSPW-OH), the Ki is more than 500 µM.
For the compound `O=C(O)CCC(=O)N[C@@H](Cc1c[nH]cn1)C(=O)N[C@@H](CO)C(=O)N1CCC[C@H]1C(=O)N[C@@H](Cc1c[nH]c2ccccc12)C(=O)O` [Suc-HSPW] (Suc-HSPW-OH; C-terminus assumed), the Ki was more than 500 µM.
In the case of `CC(C)C[C@H](NC(=O)CCC(=O)O)C(=O)N[C@@H](Cc1c[nH]cn1)C(=O)N[C@@H](CO)C(=O)N1CCC[C@H]1C(=O)N[C@@H](Cc1c[nH]c2ccccc12)C(=O)O` [Suc-LHSPW] (Suc-LHSPW-OH), the Ki is more than 500 µM.
Still for that read-out and setting: the same measure for `C[C@@H]1NC(=O)[C@H](CC(=O)O)NC(=O)[C@H](C)NC(=O)[C@@H](N)CSSC[C@@H](C(=O)O)NC(=O)[C@H](CCCCN)NC(=O)[C@H](CCCNC(=N)N)NC1=O` [cyc-ADARK] (H-CADARKC-OH; disulfide 1-7): more than 500 µM; for `C[C@@H]1NC(=O)[C@@H](N)CSSC[C@@H](C(=O)O)NC(=O)[C@H](Cc2c[nH]c3ccccc23)NC(=O)[C@@H]2CCCN2C(=O)[C@H](CO)NC(=O)[C@H](Cc2c[nH]cn2)NC1=O` [cyc-AHSPW, Cys-AHSPW-Cys] (H-CAHSPWC-OH; disulfide 1-7): more than 500 µM; for `CC(C)C[C@@H]1NC(=O)[C@@H](N)CSSC[C@@H](C(=O)O)NC(=O)[C@H](Cc2ccccc2)NC(=O)[C@H]([C@@H](C)O)NC(=O)[C@H](CO)NC(=O)[C@H](CC(=O)O)NC1=O` [cyc-LDSTF] (H-CLDSTFC-OH; disulfide 1-7): more than 500 µM.
On to `CC(C)C[C@@H]1NC(=O)[C@@H](N)CSSC[C@@H](C(=O)O)NC(=O)[C@@H]2CCCN2C(=O)[C@H](CO)NC(=O)[C@H](Cc2c[nH]cn2)NC1=O` [cyc-LHSP] (H-CLHSPC-OH; disulfide 1-6), for which the affinity corresponds to a Ki of 121 ± 21.4 µM.
For the compound `CC(C)C[C@@H]1NC(=O)[C@@H](N)CSSC[C@@H](C(=O)O)NC(=O)[C@H](CO)NC(=O)[C@H](Cc2c[nH]cn2)NC1=O` [cyc-LHS] (H-CLHSC-OH; disulfide 1-5), the Ki is more than 500 µM.
With `N[C@H]1CSSC[C@@H](C(=O)O)NC(=O)[C@H](Cc2c[nH]c3ccccc23)NC(=O)[C@@H]2CCCN2C(=O)[C@H](CO)NC(=O)[C@H](Cc2c[nH]cn2)NC(=O)[C@@H]2CCCN2C1=O` [cyc-PHSPW, Cys-PHSPW-Cys] (H-CPHSPWC-OH; disulfide 1-7), the Ki was more than 500 µM.
The compound Ac-LHSPW [Ac-LHSPW] gave a Ki of more than 500 µM.
